Source: patent US20110123512A1, “METHOD OF REGULATING THE HEAT SHOCK RESPONSE” (priority 2008, published 2011)
“Also recorded” adds a separate entry of the source.

Legend:
hsp70 (C12C8.1) mRNA [1] = test: effect of dauer pheromone on the heat shock response; assay type: in vivo, C. elegans
Protocol: C. elegans strains were grown as described above, and all animals were heat shocked at a population density of 10 adults per plate. Sufficient N values were obtained by repeating each heat shock experiment a minimum of 3 times, with 3 samples of 10 animals per plate, per experiment. Heat shock at 30° C. or 34° C., for 15 minutes on agarose plates was achieved by sealing plates with parafilm, further sealing within zip-lock bags, and immersing in a water bath equilibrated to the appropriate temperature. Following heat shock, the parafilm was removed and the animals were allowed to recover at 20° C. for the course of the experiment.
mRNA was prepared using the “ABSOLUTELY RNA® Nanoprep Kit” (Stratagene, Catalog #400753). […] Quantitative PCR was performed using iQ™ SYBR® Green Supermix (Bio-Rad, Catalog #170-8880), in the iCycler system (Bio-Rad) at a 25 μl sample volume, in thin wall 200 μl PCR plates (Cat. No. 223-9441) sealed with the optical quality sealing tape (Cat. No. 223-9444).
(§1) The relative amounts of hsp mRNA were determined using the Comparative CT Method for quantitation (14). The levels of hsp mRNA levels within an experiment were determined relative to actin mRNA, which was used as the internal control. The range of input of RNA was determined using serial dilutions of the cDNA that yielded a CT value of <30, for both the target cDNA and actin was used in all experiments. […]

[2] = tested on: hsp70 (C12C8.1) expression; test: heat shock induction of hsp70 (C12C8.1) in worms anesthetized with volatile anesthetics; assay type: in vivo, C. elegans; settings: for hsp70 (C12C8.1) expression in somatic cells: wild-type animals exposed to VAs for the full duration of heat shock (34° C., 15 minutes), 2 hours after recovery; for fraction of animals expressing GFP (hsp70 (C12C8.1) promoter GFP reporter): wild-type animals, VAs during heat shock, 2 hours post-heat shock, control 100%
C. elegans = test: anesthesia: inhibition of movement and recovery; assay type: in vivo; settings: within the first 15 minutes following exposure; no death; 10 adults per plate
Protocol: The VA anesthetics used were 2-Bromo-2-chloro-1,1,1-trifluoroethane (Halothane, Fluka, catalog #16730) and Isoflurane (Webster Veterinary NDC#14043-220-05). VA anesthetics were delivered as follows: lids of 1.5 ml eppendorf tubes were cut off, VA was pipetted into the lids, and the lids containing VAs were placed onto plates containing 10 adult wild-type or gcy-8 animals grown as described, and the plates were immediately sealed with parafilm. To inhibit neuronal signaling during the course of heat shock, the VA containing lids were placed on plates 5 minutes prior to the heat shock, and retained during the heat shock treatment of 34° C. for 15 minutes. The lids were then removed 10 minutes post-heat shock during recovery at 20° C., when the plates had equilibrated to 20° C. To inhibit neuronal signaling following the administration of heat shock, animals were heat shocked, and then the lids containing the same volume of VA was placed onto plates 20 minutes post-heat shock, and removed after 30 minutes.
As has been described before, the effect of the VA is extremely variable in any given population of C. elegans (15, 16) and is also influenced by other environmental factors, such as population density, to which the animals are exposed (15). Therefore it was necessary to titrate the amount of VA used for each experiment. […]

hsp70 (C12C8.1) mRNA [3] = test: cadmium stress: hsp70 (C12C8.1) induction; assay type: in vivo, C. elegans; settings: 50 μM
Protocol: (§2) mRNA was prepared using the “ABSOLUTELY RNA® Nanoprep Kit” (Stratagene, Catalog #400753). The manufacturer's protocol was adapted to achieve maximal lysis of worms. Briefly, 5-10 adult animals were picked either from the control or experimental plates into 100 μl of buffer made up by mixing 7 μl 13-ME (instead of the recommended 0.7 μl 13-ME), with 100 μl Lysis Buffer provided by the manufacturer. The suspension was subjected to numerous cycles of freeze-thawing in liquid nitrogen and vortexing until the animals were completely lysed. RNA was then purified as detailed in the manufacturer's protocol. mRNA was reverse transcribed using the ISCRIPT™ cDNA Synthesis Kit (Bio-Rad, Catalog #170-8891). Quantitative PCR was performed using iQ™ SYBR® Green Supermix (Bio-Rad, Catalog #170-8880), in the iCycler system (Bio-Rad) at a 25 μl sample volume, in thin wall 200 μl PCR plates (Cat. No. 223-9441) sealed with the optical quality sealing tape (Cat. No. 223-9444).
as §1

[4] = tested on: cadmium responsive genes, cdr-1 and mtl-1; test: cadmium stress: cadmium-responsive gene induction; assay type: in vivo, C. elegans
Protocol: as §2
The relative amounts of hsp mRNA were determined using the Comparative CT Method for quantitation (14). The levels of hsp mRNA levels within an experiment were determined relative to actin mRNA, which was used as the internal control. The range of input of RNA was determined using serial dilutions of the cDNA that yielded a CT value of <30, for both the target cDNA and actin was used in all experiments. This typically corresponded to 1 μl of the total cDNA obtained per sample. CT values were obtained in triplicate for each sample (technical triplicate), and three samples were used per experiment. Each experiment was then repeated a minimum of three times. All relative changes of hsp mRNA in the mutant strains were normalized to maximal wild-type values, except where otherwise noted.
Sterile-filtered cadmium chloride was added to a final concentration of 50 μM to standard, autoclaved, NGM medium, and used to make plates. OP50 was seeded onto the plates as described above. […] These animals were then harvested for quantitative RT-PCR. […]

In the case of C[C@H](CCCCC(=O)O)O[C@@H]1O[C@@H](C)[C@H](O)C[C@H]1O [dauer pheromone], the “amounts of hsp70 (C12C8.1) mRNA after heat shock” value (hsp70 (C12C8.1) mRNA [1]; gcy-8 mutant animals exposed to dauer pheromone, compared with heat-shocked wild-type under optimal growth conditions) is reported as “induced even higher amounts” and the “amounts of hsp70 (C12C8.1) mRNA after heat shock” value (hsp70 (C12C8.1) mRNA [1]; wild-type animals, high concentrations of dauer pheromone prior to or during heat shock (34° C., 15 minutes)) is reported as “decreased”.
For FC(F)OC(Cl)C(F)(F)F (stereo not shown) [isoflurane, Isoflurane], the “hsp70 (C12C8.1) expression in somatic cells” value [2] was “inhibition; also recorded: marked decrease”, the “fraction of animals expressing GFP (hsp70 (C12C8.1) promoter GFP reporter)” value [2] was 20% and the “volume of VA that inhibited the movement of 100% of the animals on a plate” value (C. elegans) was 10 to 25 µL.
With [Cl][Cd][Cl] [cadmium, cadmium chloride] the “hsp70 (C12C8.1) mRNA further induction” value (hsp70 (C12C8.1) mRNA [3]; after 16 hours of exposure) was “more than 10 fold”, the “hsp70 (C12C8.1) mRNA” value (hsp70 (C12C8.1) mRNA [3]; wild-type and gcy-8 mutant animals, 3 hours of exposure) was “similarly increased” and the “expression of cdr-1 and mtl-1 upon exposure to cadmium” value ([4]; gcy-8 (thermosensory deficient) adult animals) was “can induce”. For the same molecule, the “expression of cdr-1 and mtl-1 upon exposure to cadmium” value ([4]; osm-9 and ocr-2 mutant animals) was “deficient in their ability to upregulate” and the “cdr-1 mRNA” value ([4]; wild-type and gcy-8 mutant animals, 3 hours of exposure, 50 μM) was “similarly increased”.
With FC(F)(F)C(Cl)Br (stereo not shown) [halothane, 2-Bromo-2-chloro-1,1,1-trifluoroethane] the “hsp70 (C12C8.1) expression in somatic cells” value [2] was “inhibition; also recorded: marked decrease”, the “fraction of animals expressing GFP (hsp70 (C12C8.1) promoter GFP reporter)” value [2] was 20% and the “volume of VA that inhibited the movement of 100% of the animals on a plate” value (C. elegans) was 5 to 15 µL.
